Data taken from US20130177904A1, “ARNT ISOFORM 3 AS A PREDICTOR OF AMINOFLAVONE RESPONSIVENESS IN CANCER CELLS” (UNIVERSITY OF MARYLAND, BALTIMORE, priority 2010, published 2013).

How the values were obtained:
[1] = system: MDA-MB-231; assay: Cell Death Detection ELISA PLUS apoptosis assay; assay type: cell-based, Human; details: 1 μM AF, MDA-MB-231, 24 h or 48 h, FIG. 2A
Experimental: (§1) To determine the induction of apoptosis, the Cell Death Detection ELISA^PLUS Assay (Roche Cat. No. 11774425001), which determines the degree of cytoplasmic mono- and oligonucleosomes, was employed as described by the manufacturer. Briefly, breast cancer cells (5,000 cells for MCF-7; 2,000 cells for MDA-MB-231; 15,000 cells for T47D; 15,000 cells for MDA-MB-468; 5,000 cell for Hst578) were plated on 96 well plates and treated the next morning with or without or 1 uM AF for 24 h or 48 h. Cells were then concentrated by centrifugation at 200 g for 10 min at room temperature and the supernatant was discarded. Cells were lysed, and cytoplasmic fractions containing fragmented DNA were transferred to streptavidin-coated microtiter plates preincubated with a biotinylated monoclonal anti-histone antibody. The amount of fragmented nucleosomes bound to anti-histone antibody was evaluated by peroxidase-conjugated monoclonal antibody using ABTS (2,2-azino-di[3-ethylbenzthiazoline sulfonate-6-diammonium salt]) as a substrate, and read in a microplate reader at 405 nm. Non-treated cells were employed as controls.

[2] = system: Hst578t; assay: Cell Death Detection ELISA PLUS apoptosis assay; assay type: cell-based, Human; details: 1 μM AF, Hst578t listed as AF insensitive, 24 h or 48 h, FIG. 2A
Experimental: as §1

[3] = system: TK10; details: TK10 renal cell line, NIH dose response data; cited from earlier work
[4] = system: PS2 and Cyp1A1 promoters in T47D; assay: Chromatin Immunoprecipitation (ChIP), AhR and ER crosstalk; assay type: cell-based, Human; details: 4 or 8 hours post-treatment with AF, FIG. 3
Excerpt: (§2) Considering that the AhR and ER are both nuclear receptors and act as transcription factors, modulation of ER action after AhR activation by AF (“crosstalk”) was theorized to contribute to overall AF effects in ER+ cell lines. Therefore, Chromatin Immunoprecipitation (ChIP) was employed to study the potential crosstalk of AhR and ER after AF action at the PS2 promoter, a classical ER/estradiol inducible gene, and on Cyp1A1, a classical AF/AhR inducible gene known to be induced by AF. Transcription components studied were the AhR, ER, ARNT (the AhR transcriptional partner), RNA Polymerase II and CBP. CBP is a histone acetyl transferase associated with productive AhR induction of gene expression (Hestermann, E. V. and M. Brown, Mol Cell Biol, 23(21):7920-5 (2003)). In both T47D and MCF7 ER+ cell lines, all transcription components tested were present on the Estradiol inducible PS2 gene promotor, including the AhR. On the Cyp1A1 promotor, all the apparatus excluding CBP was present.
(§3) ChIP analysis was performed employing the Chromatin Immunoprecipitation (ChIP) Assay Kit (Millipore) as per company recommendations. […]
(§4) The resultant DNA was analyzed by PCR employing GoTaq Green Master Mix (Promega) using the following protocol: 94° C. for 2 minutes for initial melting, followed by 35 cycles at 94° C. for 30 seconds, 55° C. for 40 seconds, 72° C. […]

[5] = system: PS2 and Cyp1A1 promoters in MCF7; assay: as above; assay type: cell-based, Human; details: MCF7, 4 or 8 hours post-treatment with AF, FIG. 3
Excerpt: as §2, §3, §4

Cc1c(F)c(N)c2c(=O)cc(-c3ccc(N)c(F)c3)oc2c1F [AF, 5-amino-2-(4-amino-3-fluorophenyl)-6,8-difluoro-7-methylchromen-4-one]
increase in cytoplasmic nucleosomes [1]: < 2 fold | increase in cytoplasmic nucleosomes [2]: < 2 fold | AF sensitivity [3]: AF sensitive | transcriptional adjustment at PS2 and Cyp1A1 promoters (ChIP) [4]: dissociation of ER-related transcriptional control elements from the PS2 estrogenic promoter and their association with the Cyp1A1 promotor | transcriptional adjustment at PS2 and Cyp1A1 promoters (ChIP) [5]: dissociation of ER-related transcriptional control elements from the PS2 estrogenic promoter and their association with the Cyp1A1 promotor
